The record followed here is US20250092065A1, “2-(INDAZOL-5-YL)-6-(PIPERIDIN-4-YL)-1,7-NAPHTHYRIDINE DERIVATIVES AND RELATED COMPOUNDS AS MODULATORS FOR SPLICING NUCLEIC ACIDS AND FOR THE TREATMENT OF PROLIFERATIVE DISEASES” (REMIX THERAPEUTICS INC., priority 2022, published 2025).

One data set deals with Target C. As to the kind of experiment: HiBiT protein abundance assay, Target C (K562 HiBiT knock-in). In kind it is cell-based, human. The conditions noted are these: HiBiT knock-in K562 cells, 24 hours, top dose 10 μM. The procedure:
(§1) Cells were maintained in IMIDM with 10% FBS. Before the assay, cells were diluted with […] growth media (IMIDM+[…] media) and were seeded in a 384-well plate at a density of 10000 cells/well (for each cell line listed in Table 6). Each compound was prepared as a 10-point 3-fold serial dilution in DMSO with the top dose at a final concentration of 10 μM in the well. Unmodified K562 cells were added at the previously specified density with DMSO to serve as an assay baseline and positive control (PC) and DMSO only with the respective modified cell lines was added to the negative control (NC) columns. Final DMSO concentration was kept at or below 0.25%. Treated cell plates were placed in an incubator at 37° C. with […] for 24 hours. After 24 hours, 25 μL of Complete HiBit Lytic reagent was added to each well at room temperature (e.g. one plate requiring 10 mL Lytic Buffer, 100 μL LgBiT Protein, 200 μL Lytic Substrate), shaken for 5 minutes at 600 RPM, then left to sit for 10 minutes for signal to stabilize before reading on a Spark Cyto plate reader (Tecan) with a 500 ms measurement time.
(§2) To determine compound effects on protein abundance of each target in Table 6, the percent response for each respective cell line was calculated at each compound concentration as follows:
(§3) % response=100*(S−PC)(NC−PC)
(§4) For the normalized response at each concentration, a four-parameter logistical regression was fit to the data and the response was interpolated at the […] to determine a concentration for protein abundance at 50% (IC50) the untreated control.
On the technique in general: HiBiT is a short tag that completes a luciferase, so light tracks the accessible tagged protein.

Another data set concerns MYB. As to the kind of experiment: HiBiT protein abundance assay, MYB (K562 HiBiT knock-in). The conditions noted are these: HiBiT knock-in K562 cells, 24 hours, top dose 10 μM. In kind it is cell-based, human. As to the method:
(§5) Compounds described herein were used to screen for effects on quantitative protein abundance using a HiBit assay system (Promega). Quantitative protein abundance was determined by measuring the protein levels of HiBit-tagged protein targets expressed in cell culture via luminescence using the Nano-Glo HiBiT Lytic Detection System, which uses a split complementation assay format to reconstitute NanoBiT enzyme to generate a luminescent signal. A protein abundance assay was developed such that endogenous protein targets could be modified with the HiBiT peptide tag and their abundance could be assessed after compound treatment. Briefly, K562 cell lines containing a HiBiT-modification were treated with various compounds described herein (e.g., compounds of Formulas (I), or (II)). After treatment for 24 hours, the protein abundance of a specific target was determined by measuring luminescence.
as §1, §2, §3, §4

The subject of a further data set is HTT. As to the kind of experiment: HiBiT protein abundance assay, HTT (K562 HiBiT knock-in). In kind it is cell-based, human. The conditions noted are these: HiBiT knock-in K562 cells, 24 hours, top dose 10 μM. The procedure:
as §5, §1, §2, §3, §4

Another data set has as its system K562 cells. As to the kind of experiment: Cell Titer Glo 2.0 cell viability (toxicity) assay, K562. The conditions noted are these: 500 cells/well, 72 hours. Background: Cellular ATP, detected with luciferase, serves as a proxy for viable cell number.
A further data set concerns MYB mRNA. As to the kind of experiment: RT-qPCR splicing assay, MYB mRNA canonical (CJ) and alternative (AJ) junction. The conditions noted are these: Homo sapiens, RT-qPCR. The data set is classed as cell-based, human. As to the method: (§6) Compounds described herein were used to modulate RNA transcript abundance in cells. The expression of a target mRNA was measured by detecting the formation of an exon-exon junction in the canonical transcript (CJ). A compound mediated exon-inclusion event was detected by observing an increase in formation of a new junction with an alternative exon (AJ). Real-time qPCR assays were used to detect these splicing switches and interrogate the potency of various compounds towards different target genes. A high-throughput real time quantitative PCR (RT-qPCR) assay was developed to measure these two isoforms of the mRNA (CJ and AJ) for exemplary genes, such as HTT, SMN2, and MYB, together with a control housekeeping gene, GAPDH or GUSB or PPIA, used for normalization. Briefly, the A673 or K562 cell line was treated with various compounds described herein (e.g., compounds of Formula (I)). After treatment, the levels of the HTT, MYB, or SMN2 mRNA targets were determined from each sample of cell lysate by cDNA synthesis followed by qPCR.
(§7) The A673 cell line was cultured in DMEM with 10% FBS. Cells were diluted with full growth media and plated in a 96-well plate (15,000 cells in 100 ul media per well). The plate was incubated at 37° C. with 5% CO2 for 24 hours to allow cells to adhere. An 11-point 3-fold serial dilution of the compounds was made in DMSO then diluted in media in an intermediate plate. Compounds were transferred from the intermediate plate to the cell plate with the top dose at a final concentration of 10 uM in the well. Final DMSO concentration was kept at or below 0.25%. The cell plate was returned to the incubator at 37° C. with 5% CO2 for an additional 24 hours.
(§8) The K562 cell line was cultured in IMDM with 10% FBS. For K562, cells were diluted with full growth media and plated in either a 96-well plate (50,000 cells in 50 uL media per well) or a 384-well plate (8,000-40,000 cells in 45 uL media per well). An 11-point 3-fold serial dilution of the compounds were made in DMSO then diluted in media in an intermediate plate. Compound was transferred from the intermediate plate to the cell plate with the top dose at a final concentration of 10 uM in the well. Final DMSO concentration was kept at or below 0.25%. Final volume was 100 uL for 96-well plate and 50 uL for 384-well plate. The cell plate was then placed in an incubator at 37° C. with 5% CO2 for 24 hours.
(§9) The cells were then gently washed with 50 uL-100 uL cold PBS before proceeding to addition of lysis buffer. 30 uL-50 μL of room temperature lysis buffer with DNAse I (and optionally RNAsin) was added to each well. Cells were shaken/mixed thoroughly at room temperature for 5-10 minutes for lysis to take place and then 3 uL-5 μL of room temperature stop solution was added and wells were shaken/mixed again. After 2-5 minutes, the cell lysate plate was transferred to ice for RT-qPCR reaction setup. The lysates could also be frozen at −80° C. for later use.
(§10) In some cases, a direct lysis buffer was used. An appropriate volume of 3× lysis buffer (10 mM Tris, 150 mM NaCl, 1.5%-2.5% Igepal and 0.1-1 U/uL RNAsin, pH 7.4) was directly added to either K562 or A673 cells in media and mixed by pipetting 3 times. The plates were then incubated at room temperature with shaking/rocking for 20-50 minutes to allow for lysis to take place. After this time, the cell lysate plate was transferred to ice to set up for the RT-qPCR reactions. The lysates could also be frozen at −80° C. for later use.
(§11) To set up 10 uL RT-qPCR reactions, cell lysates were transferred to 384-well qPCR plates containing the master mix according to the table below. The plates were sealed, gently vortexed, and spun down before the run. The volumes were adjusted accordingly in some instances where the reaction was carried in 20 μL. The table below summarizes the components of the RT-qPCR reactions:
(§12) The RT-qPCR reaction was performed using a QuantStudio (ThermoFisher) under the following fast cycling conditions. […]
(In qPCR the cycle at which signal appears reflects the starting amount.)

Another data set has as its system HTT mRNA. As to the kind of experiment: RT-qPCR splicing assay, HTT mRNA canonical (CJ) and alternative (AJ) junction. In kind it is cell-based, human. The conditions noted are these: Homo sapiens, RT-qPCR. The procedure:
as §6, §7, §8, §9, §10, §11, §12

What is called IC50 is the point on the concentration scale where inhibition reaches its midpoint. For `CN(C(=O)Nc1cn[nH]c1)c1cc2nc(N3CCNCC3)ccc2cn1` [Compound 110], the IC50 in the data set with Target C, with MYB and in the data set on HTT was > 10000 nM each time.

As for `O=C(Nc1cn[nH]c1)Nc1cc2nc(N3CCNCC3)ccc2cn1` [Compound 111], the IC50 in the data set on Target C, in the data set with MYB and in the data set with HTT was > 10000 nM each time.

Regarding `O=C(NCc1ccn[nH]1)Nc1cc2nc(N3CCNCC3)ccc2cn1` [Compound 112], the IC50 in the data set with Target C, with MYB and in the data set with HTT was > 10000 nM throughout.

What is called AC50 is the concentration at which the activity in the assay is half-maximal. As for `Cn1cc2cc(-c3ccc4cc(C5CCNCC5)ccc4n3)c(O)c(F)c2n1` [Compound 241], the “Effect of Exemplary Compounds on Cell Viability, K562” value in the data set with K562 cells is reported as “A (A represents <100 nM)”. Besides, the IC50 was < 100 nM in the data set with Target C; < 100 nM in the data set with MYB; < 100 nM with MYB mRNA (MYB canonical junction mRNA, read-out: MYB CJ (decrease in CJ mRNA levels, IC50)); < 100 nM in the data set on HTT; < 100 nM in the data set with HTT mRNA (HTT canonical junction mRNA, read-out: HTT CJ (decrease in CJ mRNA levels, IC50)). The AC50 with MYB mRNA (MYB alternative junction mRNA, read-out: MYB AJ (increase in AJ mRNA, AC50)) was < 100 nM; in the data set on HTT mRNA (HTT alternative junction mRNA, read-out: HTT AJ (increase in AJ mRNA, AC50)), < 100 nM.

Consider `CNC(=O)c1nc(-c2cc3cn(C)nc3c(C)c2O)nc2ccc(N3CCNCC3)cc12` [Compound 501, 2-(6-hydroxy-2,7-dimethylindazol-5-yl)-N-methyl-6-(piperazin-1-yl)quinazoline-4-carboxamide], for which the “Effect of Exemplary Compounds on Cell Viability, K562” value in the data set with K562 cells is listed as “A (A represents <100 nM)”. Also, the IC50 is 100 to 1000 nM with Target C, < 100 nM with MYB and 100 to 1000 nM in the data set on HTT.
